Results taken from patent US11026940B2, “Compositions for the mobilization, homing, expansion and differentiation of stem cells and methods of using the same” (Ampio Pharmaceuticals, Inc., priority 2013, dated 2021).
Values joined by “and” are separate entries in the source; they are usually repeats but may differ in a detail not shown here. Equal entries are not always repeated.

Key:
MMP13 = test: Stem cell chondrogenesis, real time PCR gene expression: MMP13; type: cell-based, human; details: for Mean regulation: vs saline; for Mean ΔCp / ΔCp: MMP13 vs GAPDH
Procedure: (§1) • Stem Cells: Bone marrow derived human mesenchymal stem cells: Passage 5 Bone marrow derived human mesenchymal stem cells (HUXMA-01001, Cyagen Biosciences, Sunnyvale Calif.) • Mesenchymal Stem Cell Chondrogenic Differentiation medium (GUXMX-90041, Cyagen Biosciences, Sunnyvale Calif.) • TheraPEAK MSCGM chemically defined Stem cell medium (190632 Lonza) • 1 mM Dexamethasone acetate and mifepristone in absolute ethanol (Sigma) • Saline or 0.9% Sodium chloride for injection ZR Flush (Excelsior Medical, Neptune N.J.) • Sterile filtered 0.6 mM sodium caprylate in saline (sigma) • Sterile filtered 3 mM NAT in saline (sigma); To prepare, heat at 60° C. for 30 minutes then sonicate for 5 minutes. • Sterile filtered 10 mM DADKP in saline • 0.2 μM syringe filters • Hepes buffered saline, Trypsin/EDTA, Trypsin neutralizing solution (Lonza reagent pack) • 182 cm2 tissue culture flasks • pipettes and sterile tips • Tissue culture hood, humidified CO2 incubator, water or bead bath • 24 well tissue culture plates • Qiagen RNeasy plus spin columns (Qiagen 74134) • Qiagen RT2 qPCR primer pairs for Collagen 2A1, MMP13, TIMP1, Aggrecan, GAPDH, and Actin B • Roche Sybr green I master mix and Invitrogen Superscript VILO master mix. • Roche 480 lightcycler
(§2) The following stock drug treatment solutions were prepared in saline for injection and warmed to 37° C. in bath: • 4 μM dexamethasone • 4 μM mifepristone • 3 mM NAT • 0.6 mM caprylate • 80 μM DADKP • Mix of 3 mM NAT, 0.6 mM caprylate, 80 μM DADKP (“Ampion” mix)
(§3) Cyagen Chondrogenic Differentiation medium was prepared by manufacturer protocols but excluding dexamethasone and TGF beta 3 supplements, and warmed to 37° C. in bath.
(§4) The treatment protocol included expanding 5 HUXMA stem cells in 182 cm^2 flasks containing 40 mls TheraPEAK™ MSCGM to 80-90% confluence. Cells were trypsinized from the flasks and a 1.0×10^7 cell suspension of HUXMA stem cells was warmed in Cyagen Chondrogenic Differentiation medium. 20 μl of warmed cell suspension was spotted in the middle of each well of a 24-well tissue culture plate (200,000 cells per spot), and incubated at 37° C. and 5% CO2 for one hour.
(§5) The plates were removed from the incubator and an additional 720 μl chondrogenic medium was added to each well. 250 μl saline, or drug solutions were added to the appropriate wells in triplicate (bringing the final drug dilution to one-quarter of the stock drug treatment solution concentrations). 10 μl of TGF beta 3 solution (supplied by Cyagen) was added to each well, and the plates were returned to the incubator.
(§6) RNA isolation and analysis was conducted for all plates as follows at days 7, 14, and 22 post treatment (with the described medium exchanges). […] Qiagen RNeasy plus lysis buffer (with 2mercaptoethanol) was added to each well and gently shaken for 10 minutes. The lysed cell suspensions from each well were transferred to Qiashredder columns and spun at 14,000 rpm for 2 minutes. RNA isolation proceeded by RNeasy™ plus manufacturer's protocol. RNA was eluted from the Qiagen columns using 25 μl RNase free water.
(§7) cDNA synthesis and real time PCR was conducted as follows. First strand synthesis of cDNA from all samples was performed in 20 μl total volume using 10 μl isolated RNA. All cDNA reactions were then diluted with 30 μl nuclease free water. Real time PCR was then performed using 5 μl diluted cDNA, Roche Syber green master mix, and Qiagen RT^2 gPCR™ primer pairs in 20 μl total reaction volume. Relative gene expression was determined by delta deta Ct method.

TIMP1 = test: Stem cell chondrogenesis, real time PCR gene expression: TIMP1; type: cell-based, human; details: Day 22; for Mean ΔCp / ΔCp: TIMP1 vs Actin
Procedure: as §1, §2, §3, §4, §5, §6, §7

SOX9 = test: Stem cell chondrogenesis, real time PCR gene expression: SOX9; type: cell-based, human; details: Day 14
Procedure: The treatment protocol included expanding 5 HUXMA stem cells in 182 cm^2 flasks containing 40 […] to 80-90% confluence. Cells were trypsinized from the flasks and a 1.0×10^7 cell suspension of HUXMA stem cells was warmed in Cyagen Chondrogenic Differentiation medium. 20 μl of warmed cell suspension was spotted in the middle of each well of a 24-well tissue culture plate (200,000 cells per spot), and incubated at 37° C. and 5% CO2 for one hour. […] Medium exchanges were performed every 3-4 days by aspirating the medium from the wells and replacing with fresh chondrogenic medium, diluted stocks, and TGF beta 3, as described above. […] Medium from the wells was removed and saved for further protein analysis. Qiagen RNeasy plus lysis buffer (with 2mercaptoethanol) was added to each well and gently shaken for 10 minutes. The lysed cell suspensions from each well were transferred to Qiashredder columns and spun at 14,000 rpm for 2 minutes. RNA isolation proceeded by RNeasyTM plus manufacturer's protocol. RNA was eluted from the Qiagen columns using 25 μl RNase free water. cDNA synthesis and real time PCR was conducted as follows. First strand synthesis of cDNA from all samples was performed in 20 μl total volume using 10 μl isolated RNA. All cDNA reactions were then diluted with 30 μl nuclease free water. Real time PCR was then performed using 5 μl diluted cDNA, Roche Syber green master mix, and Qiagen RT^2 gPCRTM primer pairs in 20 μl total reaction volume.

[1] = system: Bone marrow derived human mesenchymal stem cells; test: Visual observation of cell aggregates in chondrogenic culture; type: cell-based; details: day seven
Collagen 2A1 = test: Stem cell chondrogenesis, real time PCR gene expression: Collagen 2A1; type: cell-based, human; details: for Cp Coll / Mean regulation: Collagen 2A1; for Cp Coll / Mean regulation / Mean ΔCp: Day 22; for Mean regulation: vs saline; for Mean ΔCp: Collagen 2A1 vs GAPDH; for regulation, Collagen 2A1 / Mean regulation, Collagen 2A1: fold regulation vs saline; for regulation, Collagen 2A1 / ΔCp, Collagen 2A1 / 2^-ΔΔCp vs saline, Collagen 2A1 / ΔΔCp vs saline, Collagen 2A1: single replicate well; for Mean regulation, Collagen 2A1 / Mean ΔCp, Collagen 2A1: triplicate wells; for ΔCp, Collagen 2A1: human bone marrow MSC, chondrogenic medium + TGF beta 3; for ΔCp, Collagen 2A1 / 2^-ΔΔCp vs saline, Collagen 2A1 / ΔΔCp vs saline, Collagen 2A1 / Mean ΔCp, Collagen 2A1: vs Actin
Procedure: as §1, §2, §3, §4, §5, §6, §7

Aggrecan = test: Stem cell chondrogenesis, real time PCR gene expression: Aggrecan; type: cell-based, human; details: for Mean ΔCp / ΔCp: Aggrecan vs Actin; for Mean ΔCp / ΔCp / Cp Agg / Mean regulation: Day 22; for Cp Agg / Mean regulation: Aggrecan; for Mean regulation: vs saline
Procedure: as §1, §2, §3, §4, §5, §6, §7

[2] = Day 7, vs Actin, single replicate well
[3] = vs Actin, single replicate well

C[C@@H]1NC(=O)[C@H](CC(=O)O)NC1=O [DADKP, aspartyl-alanyl diketopiperazine]
regulation, MMP13 (MMP13; Day 7, fold regulation vs saline, single replicate well): −1.29 and 1.03 and −1.76
Mean regulation, MMP13 (MMP13; Day 7, fold regulation vs saline, triplicate wells): −0.67
ΔCp, MMP13 (MMP13; Day 7, human bone marrow MSC, chondrogenic medium + TGF beta 3, vs Actin, single replicate well): 5 and 4.6 and 5.45
2^-ΔΔCp vs saline, MMP13 (MMP13; [2]): 0.7774 and 1.0257 and 0.5691
ΔΔCp vs saline, MMP13 (MMP13; [2]): 0.363 and −0.04 and 0.813
Mean ΔCp, MMP13 (MMP13; Day 7, vs Actin, triplicate wells): 5.017
Cp, MMP13 (MMP13; MMP13, Day 22, Table 12): 20.34 and 21.41 and 21.25
2^-ΔΔCp vs saline (MMP13; MMP13, Day 22, Table 16): 1.1277 and 1.0163 and 0.9352
Cp, MMP13 (MMP13; MMP13, Day 22, Table 16): 20.34 and 21.41 and 21.25
Mean regulation (MMP13; MMP13, Day 22, Table 12): 0.36
Mean regulation (MMP13; MMP13, Day 22, Table 16): 0.36
Mean ΔCp (MMP13; Day 22, Table 12): 2.96
ΔCp (MMP13; Day 22, Table 12): 2.82 and 2.97 and 3.09
Mean ΔCp (MMP13; Day 22, Table 16): 2.96
ΔCp (MMP13; Day 22, Table 16): 2.82 and 2.97 and 3.09
Cp TIMP1 (TIMP1; TIMP1, Table 12): 18.64 and 19.9 and 19.36
2-^ΔΔCp vs saline (TIMP1; TIMP1, Table 16): 1.7013 and 1.5122 and 1.7613
Cp TIMP1 (TIMP1; TIMP1, Table 16): 18.64 and 19.9 and 19.36
Mean regulation (TIMP1; TIMP1, vs saline, Table 12): 1.66
regulation (TIMP1; TIMP1, vs saline, Table 12): 1.70 and 1.51 and 1.76
regulation (TIMP1; TIMP1, vs saline, Table 16): 1.70 and 1.51 and 1.76
Mean ΔCp (TIMP1; Table 12): 3.04
ΔCp (TIMP1; Table 12): 3 and 3.17 and 2.95
Mean ΔCp (TIMP1; Table 16): 3.04
ΔCp (TIMP1; Table 16): 3 and 3.17 and 2.95
regulation, SOX9 (SOX9; fold regulation vs saline, single replicate well): −1.59 and 1.07 and 1.10
Mean regulation, SOX9 (SOX9; fold regulation vs saline, triplicate wells): 0.19
ΔCp, SOX9 (SOX9; human bone marrow MSC, chondrogenic medium + TGF beta 3, vs Actin, single replicate well): 7.85 and 7.08 and 7.04
2^-ΔΔCp vs saline, SOX9 (SOX9; [3]): 0.6285 and 1.0718 and 1.1019
ΔΔCp vs saline, SOX9 (SOX9; [3]): 0.67 and −0.1 and −0.14
Mean ΔCp, SOX9 (SOX9; vs Actin, triplicate wells): 7.323
form of the culture (discs or pellets) [1]: pulled into loose pellets
Cp Coll (Collagen 2A1; Table 12): 27.41 and 25.44 and 22.94
Cp Coll (Collagen 2A1; Table 16): 27.41 and 25.44 and 22.94
Mean regulation (Collagen 2A1; Table 12): 136.83
Mean regulation (Collagen 2A1; Table 16): 136.83
Mean ΔCp (Collagen 2A1; Table 12): 7.223
Mean ΔCp (Collagen 2A1; Table 16): 7.223
regulation, Collagen 2A1 (Collagen 2A1; Day 7): 1.65 and −2.28 and −1.25
Mean regulation, Collagen 2A1 (Collagen 2A1; Day 7): −0.62
ΔCp, Collagen 2A1 (Collagen 2A1; Day 7): 6.01 and 7.92 and 7.05
2^-ΔΔCp vs saline, Collagen 2A1 (Collagen 2A1; Day 7): 1.651 and 0.4393 and 0.8029
ΔΔCp vs saline, Collagen 2A1 (Collagen 2A1; Day 7): −0.72 and 1.187 and 0.317
Mean ΔCp, Collagen 2A1 (Collagen 2A1; Day 7): 6.993
regulation, Collagen 2A1 (Collagen 2A1; Day 14): 1.48 and 2.56 and −1.02
Mean regulation, Collagen 2A1 (Collagen 2A1; Day 14): 1.01
ΔCp, Collagen 2A1 (Collagen 2A1; Day 14): 10.49 and 9.7 and 11.09
2^-ΔΔCp vs saline, Collagen 2A1 (Collagen 2A1; Day 14): 1.4811 and 2.5609 and 0.9772
ΔΔCp vs saline, Collagen 2A1 (Collagen 2A1; Day 14): −0.57 and −1.36 and 0.033
Mean ΔCp, Collagen 2A1 (Collagen 2A1; Day 14): 10.43
collagen transcription (in words) (Collagen 2A1; day 22): greatly enhanced
increase in transcription of Collagen 2a1 (Collagen 2A1; day 22): 2000 fold
collagen transcription (in words) (Collagen 2A1; day fourteen, compared with the control in a pellet): still elevated
Mean ΔCp (Aggrecan; Table 12): 7.28
ΔCp (Aggrecan; Table 12): 9.06 and 6.83 and 5.95
Mean ΔCp (Aggrecan; Table 16): 7.28
ΔCp (Aggrecan; Table 16): 9.06 and 6.83 and 5.95
Cp Agg (Aggrecan; Table 12): 24.7 and 23.56 and 22.36
Cp Agg (Aggrecan; Table 16): 24.7 and 23.56 and 22.36
Mean regulation (Aggrecan; Table 12): 10.65
Mean regulation (Aggrecan; Table 16): 10.65
increase in transcription of aggrecan (Aggrecan; day 22): 20 fold
